The source of these data is paper PMC7908975, “Antioxidant and Anti-Inflammatory Activity of Citrus Flavanones Mix and Its Stability after In Vitro Simulated Digestion” (Antioxidants, 2021).

Structures are written as SMILES.

Data set [1] is described as follows: Trolox Equivalent Antioxidant Capacity (TEAC) assay. Here is the method:
TEAC assay was carried out according to Bazzicalupo et al.. […] Fifty microliters of each flavanone (2.0–64 µM) or trolox as reference compound (2.50–20 µM) were added to 1 mL of the TEAC reagent and incubated at RT in the dark for 6 min. The absorbance was recorded at 734 nm. Based on the results of the preliminary antioxidant and anti-inflammatory screening (see Section 2.2), the most powerful flavanones (neohesperidin, hesperidin, neoeriocitrin, eriocitrin, and hesperetin) were selected in order to prepare a flavanones mix (FM), which was, at first instance, investigated by the same in vitro colorimetric assays (see Section 2.2) in order to evaluate its potency with respect to the single flavanones and to elucidate potential synergistic mechanisms. The following final concentration range of FM were used: FRAP (2.50–20 µM), ORAC (0.08–0.60 µM), TEAC (0.31–2.50 µM), DPPH (1.25–10 µM), ADA (5.0–40 µM), and APA (2.50–20 µM). After that, being the results of the preliminary antioxidant and anti-inflammatory screening of FM very promising, an appropriate concentration was chosen to proceed with the subsequent analyses. […]

For data set [2], the system named is trypsin. Put plainly: Anti-protease activity (APA), anti-tryptic activity. It counts as biochemical. How it is done: The anti-tryptic activity of sample was evaluated according to Smeriglio et al.. Briefly, 200 µL of each flavanone (6.25–140 µM) or diclofenac sodium as reference compound (10–80 µM) were added to 12 µL of trypsin (10 µg/mL) and 188 µL of 25 mM Tris-HCl buffer (pH 7.5). After that, 200 µL of 0.8% casein solution were added and samples incubated for 20 min at 37 °C in a water bath. After that, 400 µL of perchloric acid were added to stop the reaction. The cloudy suspension, due to the protein precipitation, was centrifuged at 3500× g for 10 min and the absorbance of the supernatant was recorded at 280 nm against a blank consisting of deionized water instead of sample. Based on the results of the preliminary antioxidant and anti-inflammatory screening (see Section 2.2), the most powerful flavanones (neohesperidin, hesperidin, neoeriocitrin, eriocitrin, and hesperetin) were selected in order to prepare a flavanones mix (FM), which was, at first instance, investigated by the same in vitro colorimetric assays (see Section 2.2) in order to evaluate its potency with respect to the single flavanones and to elucidate potential synergistic mechanisms. The following final concentration range of FM were used: FRAP (2.50–20 µM), ORAC (0.08–0.60 µM), TEAC (0.31–2.50 µM), DPPH (1.25–10 µM), ADA (5.0–40 µM), and APA (2.50–20 µM). […]

A short description of data set [3]: In vitro simulated human gastric and duodenal digestion with LC-DAD-ESI-MS/MS quantification. The following applies: with respect to starting FM 10 µM. It counts as in vitro ADME. The text has this: Based on the results of the preliminary antioxidant and anti-inflammatory screening (see Section 2.2), the most powerful flavanones (neohesperidin, hesperidin, neoeriocitrin, eriocitrin, and hesperetin) were selected in order to prepare a flavanones mix (FM), which was, at first instance, investigated by the same in vitro colorimetric assays (see Section 2.2) in order to evaluate its potency with respect to the single flavanones and to elucidate potential synergistic mechanisms. The following final concentration range of FM were used: FRAP (2.50–20 µM), ORAC (0.08–0.60 µM), TEAC (0.31–2.50 µM), DPPH (1.25–10 µM), ADA (5.0–40 µM), and APA (2.50–20 µM). After that, being the results of the preliminary antioxidant and anti-inflammatory screening of FM very promising, an appropriate concentration was chosen to proceed with the subsequent analyses. In particular, the FM was prepared on the assumption that digested sample, which would then be applied to the Caco-2 cells for the anti-inflammatory experiments, had to contain an equimolar concentration of the five most powerful flavanones (neohesperidin, hesperidin, neoeriocitrin, eriocitrin, and hesperetin) equal to 10 µM, which represents the mean efficacy concentration taking into account the IC50 values obtained in the preliminary antioxidant and anti-inflammatory screening of the FM. At this purpose, stock solutions (14 mM) of flavanones in DMSO were mixed and diluted 10-fold with Milli-Q water to obtain the 1.4 mM FM, which was used to carried out the in vitro simulated human digestion. In vitro gastric and duodenal digestion of FM was carried out according to Trombetta et al. with some modifications. FM solution (1.5 mL) (see Section 2.3), has been dissolved in 7.5 mL of simulated gastric solution containing 0.127 mM egg-phosphatidylcholine and adjusting the pH to 2.5, by 1 M HCl. Gastric pepsin and lipase (9000 U/mL and 60 U/mL, respectively) were added to the mixture starting the gastric digestion phase, which was protracted for 2 h at 37 °C, incubating under continuous stirring (170 rpm) by an Innova 4000 Benchtop Incubator Shaker (New Brunswick Scientific, Edison, NJ, USA). The gastric phase was stopped by the addition of 1M NaOH in order to reach a pH of 7.5, and 6 mL of the previous solution passed to the duodenal digestion phase. Duodenal solution was prepared by adding 2.10 mL of simulated bile solution (6.5 mM phosphatidylcholine, 4 mM cholesterol, 12.5 mM sodium taurocholate, and 12.5 mM sodium glycodeoxycholate) to 5.9 mL of simulated pancreatic juice containing pancreatic lipase (590 U/mL), colipase (3.2 µg/mL), trypsin (11 U/mL), α-chymotrypsin (24 U/mL), and α-amylase (300 U/mL). The duodenal mixture was incubated for 4 h under continuous stirring at 37 °C as described above. At the end, both gastric and duodenal digesta were immediately stored at −80 °C until the subsequent analyses. For quali-quantitative determination of flavanones, gastric and duodenal digesta were extracted with methanol (1:2, v/v) by mixing for 3 min. After that, samples were centrifuged at 12,000× g for 10 min, filtered by a 0.22 µm nylon syringe filter and injected into a liquid chromatograph equipped with a diode-array detector and mass spectrophotometer (LC-DAD-MS system, Agilent technologies, Santa Clara, CA, USA). The chromatographic separation was obtained using a reverse phase column Luna Omega PS C18 (150 × 2.1 mm, 5 µm; Phenomenex, Torrance, CA, USA) by using solvent A (formic acid 0.1% v/v) and solvent B (acetonitrile) as mobile phase according to the following elution gradient: 0 min, 0% B; 3–9 min, 3% B; 9–24 min, 12% B; 24–30 min, 20% B; 30–33 min, 33–43 30% B; 43–66 min 50% di B; 66–81 min 60% di B; 81–86 min 0% di B; 86–90 min 0% di B. […] UV–Vis spectra of flavanones were recorded (190–400 nm) and chromatograms were acquired at 292 nm, maximum flavanones absorption wavelength. […]

Details of data set [4]: method as in PMID 19728713. The following applies: as compounds of a bitter orange extract; cited from earlier work.

On to `COc1ccc(C2CC(=O)c3c(O)cc(O)cc3O2)cc1O` (centres unmarked) [Hesperetin, 3′,5,7-trihydroxy-4′-methoxyflavanone], for which, in data set [1], the “IC50 in comparison with reference standard trolox, TEAC” value is “a behavior comparable with the reference standard”. Also, the “anti-inflammatory activity less than the other tested molecules, protease inhibition” value in data set [2] was “about 4 times”. Also, the “DFM (µM): flavanone in duodenal digested flavanones mix” value in data set [3] (after gastric 2 h plus duodenal 4 h digestion, 37 °C) is recorded as 8.76 ± 0.22 µM. The “GFM (µM): flavanone in gastric digested flavanones mix” value in data set [3] (after gastric digestion 2 h, pH 2.5, 37 °C) is given as 9.38 ± 0.18 µM. Also, the “stability after simulated in vitro digestion” value in data set [4] is given as “stable after simulated in vitro digestion”.
